Target: human GABAA α5β2γ1 receptor (Homo sapiens (Human), UniProt P31644+Q8N1C3)
Test: Radioligand binding assay, competition for [3H]RO7239181, γ1-containing GABAA subtypes
Protocol: The affinity of compounds at GABAA γ1 subunit-containing receptors was measured by competition for [^3H]RO7239181 (67.3 Ci/mmol; Roche) binding to membranes from HEK293F cells (ThermoFisher R79007) expressing human (transiently transfected) receptors of composition α5β2γ1, α2β2γ1, α1β2γ1. For better protein expression of the α2 subunit-containing receptors, the 28 amino acid long signal peptide (Met1 to Ala28) of the human GABAA α2 subunit was substituted by the 31 amino acid long signal peptide (Met1 to Ser31) of human GABAA α5 subunit.
Harvested pellets from HEK293F cells expressing the different GABAA receptor subtypes were resuspended in Mannitol Buffer pH 7.2-7.4 (Mannitol 0.29 M, Triethylamine 10 mM, Acetic acid 10 mM, EDTA 1 mM plus protease inhibitors (20 tablets Complete, Roche Diagnostics Cat. No. 05 056 489 001 per liter)), washed two times and then resuspended at 1:10 to 1:15 dilution in the same buffer. Cell disruption was performed by stirring the suspension in a Parr vessel #4637 at 435 psi for 15 minutes, and then the suspensions were centrifuged at 1000×g for 15 minutes at 4° C. (Beckman Avanti J-HC; rotor JS-4.2). The supernatant (S1) was transferred in a 21 Schott flask and the pellet (P1) was resuspended with Mannitol Buffer up to 175 ml. The resuspended pellet was transferred into a 250 ml Corning centrifugal beaker and centrifuged at 1500×g for 10 minutes at 4° C. (Beckman Avanti J-HC; rotor JS-4.2). The supernatant (S1) was then transferred in the 21 Schott flask and the pellet was discarded. The supernatants (S1) were centrifuged in 500 ml Beckman polypropylene centrifugal beaker at 15'000×g for 30 minutes at 4° C. (Beckman Avanti J-20 XP; rotor JLA-10.500). The pellet (P2) was resuspended with Mannitol Buffer 1:1 and frozen at −80° C. The supernatant (S2) was centrifuged in 100 ml Beckman polypropylene centrifugal tubes at 48000×g for 50 minutes at 4° C. (Beckman Avanti J-20 XP; rotor JA-18). The supernatant (S3) was discarded and the pellet (P3) was resuspended with 1:1 Mannitol Buffer. The P2 and P3 protein concentration was determined with the BIORAD Standard assay method with bovine serum albumin as standard and measured on the NANO-Drop 1000. The membrane suspension was aliquots (500 μl per tube) and stored at −80° C. until required.
Membrane homogenates were resuspended and polytronised (Polytron PT1200E Kinematica AG) in Potassium Phosphate 10 mM, KCl 100 mM binding buffer at pH 7.4 to a final assay concentration determined with a previous experiment.
Radioligand binding assays were carried out in a volume of 200 μL (96-well plates) which contained 100 μL of cell membranes, [^3H]RO7239181 at a concentration of 1.5 nM (α5β2γ1) or 20-30 nM (α1β2γ1, α2β2γ1) and the test compound in the range of [0.3-10000]×10^−9 M. Nonspecific binding was defined by 10×10^−6 (α5β2γ1) and 30×10^−6 M RO7239181 and typically represented less than 5% (α5β2γ1) and less than 20% (α1β2γ1, α2β2γ1) of the total binding. Assays were incubated to equilibrium for 1 hour at 4° C. and then, membranes were filtered onto unifilter (96-well white microplate with bonded GF/C filters preincubated 20-50 minutes in 0.3% Polyethylenimine) with a Filtermate 196 harvester (Packard BioScience) and washed 4 times with cold Potassium Phosphate 10 mM pH 7.4, KCl 100 mM binding buffer. After anhydrousing, filter-retained radioactivity was detected by liquid scintillation counting. Ki values were calculated using Excel-Fit (Microsoft) and are the means of two determinations.

SMILES: Cc1nnc2n1-c1sc3c(c1C(c1c(F)cccc1F)=N[C@H]2C)CCCCC3O (mixture of isomers) [Example 9, (7S,16RS)-9-(2,6-difluorophenyl)-3,7-dimethyl-18-thia-2,4,5,8-tetrazatetracyclo[8.8.0.02,6.011,17]octadeca-1(10),3,5,8,11(17)-pentaen-16-ol]
- Ki: 2.79 nM

SMILES: Cc1nnc2n1-c1sc3c(c1C(c1c(F)cccc1F)=N[C@H]2C)CCCC(O)C3 (mixture of isomers) [Example 13, (7S,15RS)-9-(2,6-difluorophenyl)-3,7-dimethyl-18-thia-2,4,5,8-tetrazatetracyclo[8.8.0.02,6.011,17]octadeca-1(10),3,5,8,11(17)-pentaen-15-ol]
- Ki: 5.67 nM

SMILES: Cc1nnc2n1-c1sc3c(c1C(c1c(F)cccc1F)=N[C@H]2C)CCCC[C@H]3F (single isomer, unassigned) [Example 11]
- Ki: 2.7 nM

SMILES: C[C@@H]1N=C(c2c(F)cccc2F)c2c(sc3c2CCCCC3)-n2c(C3CC3)nnc21 [Example 3, (7S)-3-cyclopropyl-9-(2,6-difluorophenyl)-7-methyl-18-thia-2,4,5,8-tetrazatetracyclo[8.8.0.02,6.011,17]octadeca-1(10),3,5,8,11(17)-pentaene]
- Ki: 3.69 nM

SMILES: C[C@@H]1N=C(c2c(F)cccc2F)c2c(sc3c2CCCCC3)-n2c(-c3cccnn3)nnc21 [Example 4, (7S)-9-(2,6-difluorophenyl)-7-methyl-3-pyridazin-3-yl-18-thia-2,4,5,8-tetrazatetracyclo[8.8.0.02,6.011,17]octadeca-1(10),3,5,8,11(17)-pentaene]
- Ki: 8.65 nM

SMILES: C[C@@H]1N=C(c2c(F)cccc2F)c2c(sc3c2CCCCC3)-n2ccc(=O)nc21 [Example 7, (8S)-10-(2,6-difluorophenyl)-8-methyl-19-thia-2,6,9-triazatetracyclo[9.8.0.02,7.012,18]nonadeca-1(11),3,6,9,12(18)-pentaen-5-one]
- Ki: 2.24 nM

SMILES: Cc1nc2n(n1)-c1sc3c(c1C(c1c(F)cccc1F)=N[C@H]2C)CCCCC3 [Example 20, (7S)-9-(2,6-difluorophenyl)-4,7-dimethyl-18-thia-2,3,5,8-tetrazatetracyclo[8.8.0.02,6.011,17]octadeca-1(10),3,5,8,11(17)-pentaene]
- Ki: 0.98 nM

SMILES: C[C@@H]1N=C(c2c(F)cccc2F)c2c(sc3c2COCCO3)-n2nc(C(=O)N3CCC3)nc21 [Example 22, azetidin-1-yl-[(7S)-9-(2,6-difluorophenyl)-7-methyl-13,16-dioxa-18-thia-2,3,5,8-tetrazatetracyclo[8.8.0.02,6.011,17]octadeca-1(10),3,5,8,11(17)-pentaen-4-yl]methanone]
- Ki: 1.12 nM

SMILES: [2H]C1([2H])OCc2c(sc3c2C(c2c(F)cccc2F)=N[C@@H](C)c2nc(C(=O)N4CCC4)nn2-3)OC1([2H])[2H] [Example 23, azetidin-1-yl-[(7S)-14,14,15,15-tetradeuterio-9-(2,6-difluorophenyl)-7-methyl-13,16-dioxa-18-thia-2,3,5,8-tetrazatetracyclo[8.8.0.02,6.011,17]octadeca-1(10),3,5,8,11(17)-pentaen-4-yl]methanone]
- Ki: 2.49 nM

SMILES: C[C@@H]1N=C(c2c(F)cccc2F)c2c(sc3c2COCCO3)-n2nc(C(=O)NCCF)nc21 [Example 25, (7S)-9-(2,6-difluorophenyl)-N-(2-fluoroethyl)-7-methyl-13,16-dioxa-18-thia-2,3,5,8-tetrazatetracyclo[8.8.0.02,6.011,17]octadeca-1(10),3,5,8,11(17)-pentaene-4-carboxamide]
- Ki: 2.1 nM

SMILES: Cc1cn2c(nc1=O)[C@H](C)N=C(c1c(F)cccc1F)c1c-2sc2c1CCCCC2 [Example 26, (8S)-10-(2,6-difluorophenyl)-4,8-dimethyl-19-thia-2,6,9-triazatetracyclo[9.8.0.02,7.012,18]nonadeca-1(11),3,6,9,12(18)-pentaen-5-one]
- Ki: 3.78 nM

SMILES: Cc1nnc2n1-c1sc3c(c1C(c1c(F)cccc1F)=N[C@H]2C)CC[C@@H](O)CC3 [Example 27, (7S,14R)-9-(2,6-difluorophenyl)-3,7-dimethyl-18-thia-2,4,5,8-tetrazatetracyclo[8.8.0.02,6.011,17]octadeca-1(10),3,5,8,11(17)-pentaen-14-ol]
- Ki: 10.9 nM

SMILES: Cc1nc2n(n1)-c1sc3c(c1C(c1c(F)cccc1F)=N[C@H]2C)COCCO3 [Example 28, (7S)-9-(2,6-difluorophenyl)-4,7-dimethyl-13,16-dioxa-18-thia-2,3,5,8-tetrazatetracyclo[8.8.0.02,6.011,17]octadeca-1(10),3,5,8,11(17)-pentaene]
- Ki: 0.89 nM

SMILES: C[C@@H]1N=C(c2c(F)cccc2F)c2c(sc3c2COCCO3)-n2nc(C(=O)N3CC(OC(C)(C)C)C3)nc21 [Example 29, (3-tert-butoxyazetidin-1-yl)-[(7S)-9-(2,6-difluorophenyl)-7-methyl-13,16-dioxa-18-thia-2,3,5,8-tetrazatetracyclo[8.8.0.02,6.011,17]octadeca-1(10),3,5,8,11(17)-pentaen-4-yl]methanone]
- Ki: 1.82 nM

SMILES: C[C@@H]1N=C(c2c(F)cccc2F)c2c(sc3c2COCCO3)-n2nc(C(=O)NC3CC3)nc21 [Example 36]
- Ki: 3.66 nM

SMILES: CCNC(=O)c1nc2n(n1)-c1sc3c(c1C(c1c(F)cccc1F)=N[C@H]2C)COCCO3 [Example 37, (7S)-9-(2,6-difluorophenyl)-N-ethyl-7-methyl-13,16-dioxa-18-thia-2,3,5,8-tetrazatetracyclo[8.8.0.02,6.011,17]octadeca-1(10),3,5,8,11(17)-pentaene-4-carboxamide]
- Ki: 3.21 nM

SMILES: Cc1nc2n(n1)-c1sc3c(c1C(c1c(F)cccc1F)=N[C@H]2C)COC[C@H](C)O3 [Example 39, (7S,15S)-9-(2,6-difluorophenyl)-4,7,15-trimethyl-13,16-dioxa-18-thia-2,3,5,8-tetrazatetracyclo[8.8.0.02,6.011,17]octadeca-1(10),3,5,8,11(17)-pentaene]
- Ki: 3.47 nM

SMILES: C[C@@H]1N=C(c2c(F)cccc2F)c2c(sc3c2COC[C@H](C)O3)-n2nc(C(=O)N3CC(OC(C)(C)C)C3)nc21 [Example 41, (3-tert-butoxyazetidin-1-yl)-[(7S,15S)-9-(2,6-difluorophenyl)-7,15-dimethyl-13,16-dioxa-18-thia-2,3,5,8-tetrazatetracyclo[8.8.0.02,6.011,17]octadeca-1(10),3,5,8,11(17)-pentaen-4-yl]methanone]
- Ki: 6.2 nM

SMILES: CCc1nnc2n1-c1sc3c(c1C(c1c(F)cccc1F)=N[C@H]2C)COCCO3 [Example 42, (7S)-9-(2,6-difluorophenyl)-3-ethyl-7-methyl-13,16-dioxa-18-thia-2,4,5,8-tetrazatetracyclo[8.8.0.02,6.011,17]octadeca-1(10),3,5,8,11(17)-pentaene]
- Ki: 2.9 nM

SMILES: C[C@@H]1N=C(c2c(F)cccc2F)c2c(sc3c2COCCO3)-n2c(C3CC3)nnc21 [Example 43, (7S)-3-cyclopropyl-9-(2,6-difluorophenyl)-7-methyl-13,16-dioxa-18-thia-2,4,5,8-tetrazatetracyclo[8.8.0.02,6.011,17]octadeca-1(10),3,5,8,11(17)-pentaene]
- Ki: 4.45 nM

SMILES: CC(C)c1nnc2n1-c1sc3c(c1C(c1c(F)cccc1F)=N[C@H]2C)COCCO3 [Example 44, (7S)-9-(2,6-difluorophenyl)-3-isopropyl-7-methyl-13,16-dioxa-18-thia-2,4,5,8-tetrazatetracyclo[8.8.0.02,6.011,17]octadeca-1(10),3,5,8,11(17)-pentaene]
- Ki: 4.87 nM

SMILES: C[C@@H]1N=C(c2c(F)cccc2F)c2c(sc3c2COCCO3)-n2c(C(F)F)nnc21 [Example 48, (7S)-3-(difluoromethyl)-9-(2,6-difluorophenyl)-7-methyl-13,16-dioxa-18-thia-2,4,5,8-tetrazatetracyclo[8.8.0.02,6.011,17]octadeca-1(10),3,5,8,11(17)-pentaene]
- Ki: 13.5 nM
